Source: US20140024803A1, “18FDG MULTIMERIC POSITRON EMISSION TOMOGRAPHY IMAGING AGENTS” (priority 2012, published 2014)

Test: In vitro calcium salt specificity experiment (PET/CT of crystals after incubation and washing)
Format: binding
Conditions: 5 mg/mL calcium salts (HA, phosphate, oxalate, carbonate, pyrophosphate), 10 μCi in 100 μL PBS, 20 min at RT, washed, 10 minute static PET/CT scan
Experimental: To determine the selectivity and specificity of ^18FDG amino-Ad-Pam-Monomer for hydroxyapatite (HA), a major mineral component of calcifications and normal bone, over other calcium salts, in the present invention an incubation of equal quantity each of Ca-hydroxyapatite (HA), Ca-pyrophosphate (CPP), Ca-phosphate (CP), Ca-oxalate (CO), and Ca-carbonate (CC) salts with ^18FDG amino-Ad-Pam-Monomer in phosphate buffered saline (PBS) is performed. PET/CT images are acquired after incubation and washing of crystals, ^18FDG amino-Ad-Pam-Monomer has about 5-fold specificity for HA over other calcium salts found in the body and permits PET/CT detection of HA with high sensitivity. However, Na^18F, the Food and Drug Administration approved imaging agent for bone scintigraphy, permits about 1.5 fold specificity for HA over other calcium salts.
In a 96-well plate, 5 mg/mL of hydroxyapatite (HA) or the phosphate, oxalate, carbonate, and pyrophosphate salts of calcium are separately incubated with ^18FDG amino-Ad-Pam-Monomer (10 μCi) in 100 μL PBS for 20 min with continuous vortexing at RT. Crystals are washed 4 times with a 100-fold excess of PBS, centrifuged and mounted on PET/CT and 10 minute static scans are acquired. Similarly, calcium salt binding study is performed with Na^18F in a same condition.

Q: Which “specificity for HA over other calcium salts” value does the source give for `[18F-].[Na+]` [Na^18F] here?
A: The value was “about 1.5 fold”.
